# In publication PMC11672547, “Combination of Coevolutionary Information and Supervised Learning Enables Generation of Cyclic Peptide Inhibitors with Enhanced Potency from a Small Data Set” (ACS Central Science, 2024):
# Read-outs that look alike come from different tables or passages of the source. Numbered stars: 1 amine (or outer) side, 2 acyl side, 3 side chain; on linkers, the order of the positions; unused ones are H or OH. Bridge positions count the residues as written; N and C are the ends. Peptide text beside a SMILES is read from it. TBMB = c1c(C[*:1])cc(C[*:3])cc1C[*:2]
# Tests used:
# [1] = molecular target: T1, human urokinase-type plasminogen activator (huPA) (Homo sapiens, UniProt P00749); test: huPA inhibition, fluorogenic enzyme activity assay (Z-Gly-Gly-Arg-AMC), Ki by Cheng-Prusoff; format: biochemical; conditions: 25 °C
# T1 construct: (UPA-LMW, Molecular Innovations, Novi, MI, USA) 1.5 nM; purchased Molecular Innovations UPA-LMW
# Procedure: bicyclic peptides. The activity assay was performed by incubating […] huPA with 50 μM fluorogenic substrate Z-Gly-Gly-Arg-AMC (50 μM; Bachem, Bubendorf, Switzerland) and […]
# NaCl, 10 mM MgCl2, 1mM CaCl2, 0.1% w/v BSA, 0.01% v/v Triton-X100 and 5% v/v DMSO.
# The measurements were performed on a Tecan microplate reader (Tecan infinite 200 pro, Tecan Trading AG, Switzerland) using black microfluor 96-well plate Nunc MicroWell, (Thermo Fisher Scientific, Dreieich, Germany) The enzymatic reactions were performed at 25 °C for 30 min, under shacking with an excitation wavelength of 355 nm and an emission recording at 460 nm. The initial velocities were monitored as changes in fluorescence intensity. The sigmoidal curves were fitted to the data using the following non-linear regression equation for the inhibitory dose-response curves with variable slope (2): […]
# where x is the peptide concentration, y is the residual percentage of protease activity and p is the hill slope. Half maximum inhibitory concentration (IC50) values were derived from the fitted curves from GraphPad Prism 8 8.0.0. software (GraphPad software, Inc., San Diego, California). The final Ki was subsequently determined using the Cheng-Prusoff equation (3): […]
# where Km (115 μM) is the Michaelis constant for the hydrolysis of Z-Gly-Gly-Arg-AMC catalysed by huPA which has been determined by standard Michaelis-Menten equation.
# Values were determined using either OriginPro 8G software (OriginLab Corporation, Northamppton, MA, USA) or GraphPad Prism 8.0.0. software (GraphPad software, Inc., San […]
# Recombinant production of the catalytic domain of human urokinase-type […]
# The low molecular weight (LMW) human urokinase-type plasminogen activator (huPA) comprising the truncated 23 amino acid peptide fragment of chain A (Lys136-Lys158 in […]
# [2] = molecular target: T1, human urokinase-type plasminogen activator (huPA); conditions: UK140 family of 31 phage-encoded bicyclic peptides; cited from earlier work
# [3] = molecular target: T2, human plasmin (Homo sapiens, UniProt P00747); test: Specificity determination, residual protease activity (fluorogenic substrate); format: biochemical; conditions: 25 °C, pH 7.4, H-D-Val-Leu-Lys-AMC 50 μM
# T2 construct: Bachem; purchased Molecular Innovations HPLM
# T2 sequence (P00747 581-810 limits assumed): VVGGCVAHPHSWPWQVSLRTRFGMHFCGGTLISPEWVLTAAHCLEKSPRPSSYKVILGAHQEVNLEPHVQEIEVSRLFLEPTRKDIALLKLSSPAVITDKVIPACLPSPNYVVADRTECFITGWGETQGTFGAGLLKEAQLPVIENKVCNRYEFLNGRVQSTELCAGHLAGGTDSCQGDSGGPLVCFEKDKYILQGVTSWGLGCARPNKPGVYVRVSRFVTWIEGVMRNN
# T2 sequence (P00747 97-580 partner limits assumed): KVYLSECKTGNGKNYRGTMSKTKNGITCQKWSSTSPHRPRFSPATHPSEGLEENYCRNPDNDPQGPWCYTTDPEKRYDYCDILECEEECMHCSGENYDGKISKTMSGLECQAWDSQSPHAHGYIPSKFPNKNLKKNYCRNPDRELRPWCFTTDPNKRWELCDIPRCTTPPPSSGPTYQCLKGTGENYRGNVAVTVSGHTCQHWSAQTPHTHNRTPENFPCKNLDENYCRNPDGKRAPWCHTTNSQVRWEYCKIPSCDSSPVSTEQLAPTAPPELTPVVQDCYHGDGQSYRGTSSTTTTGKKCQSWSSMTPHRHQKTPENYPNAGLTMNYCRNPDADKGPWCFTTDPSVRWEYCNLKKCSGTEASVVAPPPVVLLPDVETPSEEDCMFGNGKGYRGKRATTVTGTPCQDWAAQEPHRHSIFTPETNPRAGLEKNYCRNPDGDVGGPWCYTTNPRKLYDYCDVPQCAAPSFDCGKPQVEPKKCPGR
# Procedure: (§1) 5% v/v DMSO. Final concentrations of serine proteases were the following: human uPA (UPA-LMW, Molecular Innovations, Novi, MI, USA) 1.5 nM, mouse uPA (MUPA-LMW, Molecular Innovations, Novi, MI, USA) 12 nM, human tPA (HTPATC; Molecular Innovations, Novi, MI, USA) 7.5 nM, mouse tPA (MTPA, Molecular Innovations, Novi, MI, USA) 6 nM, human trypsin (HTRYP, Molecular Innovations, Novi, MI, USA) 0.05 nM, human plasmin (HPLM, Molecular Innovations, Novi, MI, USA) 1.5 nM, human plasma kallikrein (IHPKA, Innovative Research, Novi, MI, USA) 0.5 nM, human thrombin (IHT, Innovative Research, Novi, MI, USA) 10 nM, and human factor XIIa (IHFXIIa, Innovative Research, Novi, MI, USA) 6 nM. Two-fold dilutions of UK970 bicyclic peptide inhibitor were prepared ranging from 1 mM to 125 nM for all the proteases. For human uPA an extra two-fold UK970 inhibitor dilution experiment was performed by using inhibitor concentrations ranging from 2000 nM to 0.12 nM. For the determination of the Ki inhibitory constants, the following fluorogenic substrates were used at final concentration of 50 μM: Z-Gly-Gly-Arg-AMC (for human uPA, murine uPA, human tPA, murine tPA, human trypsin, human thrombin and human factor XIIa; Bachem, Bubendorf, Switzerland), Z-Phe-Arg-AMC (for human plasma kallikrein; Bachem, Bubendorf, Switzerland) and H-D-Val-Leu-Lys-AMC (for human plasmin; Bachem, Bubendorf, Switzerland). The initial velocities were monitored as changes in fluorescence intensity during 30 min on a Tecan microplate reader (Tecan infinite 200 pro, Tecan Trading AG, Switzerland) using black microfluor 96-well plate Nunc MicroWell (Thermo Fisher Scientific, Dreieich, Germany). The enzymatic reactions were performed at 25 °C under shacking with an excitation wavelength of 355 nm and an emission recording at 460 nm.
# (§2) Apparent equilibrium constants Kiapps values were determined by non-linear regression analyses of Vi/V0 versus [I]0 using equation (2). The final Kis were subsequently determined by correcting for the competitive effect of the substrate [S]0 using equation (3). The kinetic constants Kms for the hydrolysis of fluorogenic substrate, catalysed by each protease, were determined by standard Michaelis-Menten equation. Values were determined using either OriginPro 8G software (OriginLab Corporation, Northamppton, MA, USA) or GraphPad Prism 8.0.0. software (GraphPad software, Inc., San Diego, California). […]
# [4] = molecular target: T3, human thrombin (Homo sapiens, UniProt P00734); test: as above; format: biochemical; conditions: 25 °C, pH 7.4, Z-Gly-Gly-Arg-AMC 50 μM
# T3 construct: human thrombin (IHT, Innovative Research,; purchased Innovative Research IHT
# Procedure: as §1, §2
# [5] = molecular target: T4, human plasma kallikrein (Homo sapiens, UniProt P03952); test: as above; format: biochemical; conditions: 25 °C, pH 7.4, Z-Phe-Arg-AMC 50 μM
# T4 construct: purchased Innovative Research IHPKA
# T4 sequence (P03952 391-638 limits assumed): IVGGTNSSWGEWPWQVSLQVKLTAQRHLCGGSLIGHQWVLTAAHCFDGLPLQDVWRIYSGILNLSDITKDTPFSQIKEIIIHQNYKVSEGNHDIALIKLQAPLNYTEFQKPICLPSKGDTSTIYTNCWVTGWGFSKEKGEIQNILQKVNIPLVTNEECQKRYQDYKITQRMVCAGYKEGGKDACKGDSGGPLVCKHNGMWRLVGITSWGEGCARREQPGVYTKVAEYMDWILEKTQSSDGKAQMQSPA
# T4 sequence (P03952 20-390 partner limits assumed): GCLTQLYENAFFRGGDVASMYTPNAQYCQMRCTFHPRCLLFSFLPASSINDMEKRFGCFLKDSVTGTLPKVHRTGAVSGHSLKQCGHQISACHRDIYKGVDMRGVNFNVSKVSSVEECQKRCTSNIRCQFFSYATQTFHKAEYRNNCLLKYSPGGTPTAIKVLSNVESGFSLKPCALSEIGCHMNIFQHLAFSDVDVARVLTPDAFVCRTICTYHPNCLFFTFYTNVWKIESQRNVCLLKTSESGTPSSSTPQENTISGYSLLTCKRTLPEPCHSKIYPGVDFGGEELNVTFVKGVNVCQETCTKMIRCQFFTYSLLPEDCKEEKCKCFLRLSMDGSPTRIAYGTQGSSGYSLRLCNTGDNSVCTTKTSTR
# Procedure: as §1, §2
# [6] = molecular target: T5, murine tPA (mtPA) (Mus musculus, UniProt P11214); test: as above; format: biochemical; conditions: 25 °C, pH 7.4, Z-Gly-Gly-Arg-AMC 50 μM
# T5 construct: purchased Molecular Innovations MTPA
# T5 sequence (P11214 33-559): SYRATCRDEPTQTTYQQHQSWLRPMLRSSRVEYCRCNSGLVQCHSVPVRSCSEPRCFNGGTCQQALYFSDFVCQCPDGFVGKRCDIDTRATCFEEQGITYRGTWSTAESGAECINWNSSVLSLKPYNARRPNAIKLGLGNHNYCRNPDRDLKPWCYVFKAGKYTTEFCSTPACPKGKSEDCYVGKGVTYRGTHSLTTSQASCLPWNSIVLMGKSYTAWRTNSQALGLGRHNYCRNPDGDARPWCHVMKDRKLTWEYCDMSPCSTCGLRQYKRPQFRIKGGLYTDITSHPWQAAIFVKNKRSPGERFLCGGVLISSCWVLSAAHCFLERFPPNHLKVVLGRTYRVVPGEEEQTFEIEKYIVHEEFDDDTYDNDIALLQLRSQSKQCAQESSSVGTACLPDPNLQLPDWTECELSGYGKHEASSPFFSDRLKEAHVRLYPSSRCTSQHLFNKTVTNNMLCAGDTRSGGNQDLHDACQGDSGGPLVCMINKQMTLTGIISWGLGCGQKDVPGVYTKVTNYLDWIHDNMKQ
# Procedure: as §1, §2
# [7] = molecular target: T6, human tPA (htPA) (Homo sapiens, UniProt P00750); test: as above; format: biochemical; conditions: 25 °C, pH 7.4, Z-Gly-Gly-Arg-AMC 50 μM
# T6 construct: purchased Molecular Innovations HTPATC
# T6 sequence (P00750 311-562 limits assumed): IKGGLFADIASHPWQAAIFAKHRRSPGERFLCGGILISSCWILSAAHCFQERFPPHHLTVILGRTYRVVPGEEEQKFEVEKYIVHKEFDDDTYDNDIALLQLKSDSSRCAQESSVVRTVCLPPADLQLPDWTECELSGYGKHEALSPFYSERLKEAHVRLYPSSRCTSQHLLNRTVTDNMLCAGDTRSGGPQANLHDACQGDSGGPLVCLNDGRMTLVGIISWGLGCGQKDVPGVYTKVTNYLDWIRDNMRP
# T6 sequence (P00750 36-310 partner limits assumed): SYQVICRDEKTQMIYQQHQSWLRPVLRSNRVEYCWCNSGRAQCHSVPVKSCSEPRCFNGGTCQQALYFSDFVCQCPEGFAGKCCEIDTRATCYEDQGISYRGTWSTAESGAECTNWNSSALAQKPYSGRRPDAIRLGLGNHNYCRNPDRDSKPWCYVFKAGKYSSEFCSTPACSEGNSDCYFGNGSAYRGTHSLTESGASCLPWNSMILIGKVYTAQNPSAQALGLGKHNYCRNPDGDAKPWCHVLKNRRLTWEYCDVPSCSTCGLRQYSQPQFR
# Procedure: as §1, §2
# [8] = molecular target: T7, human factor XIIa (Homo sapiens, UniProt P00748); test: as above; format: biochemical; conditions: 25 °C, pH 7.4, Z-Gly-Gly-Arg-AMC 50 μM
# T7 construct: human factor XIIa (IHFXIIa, Innovative Research,; purchased Innovative Research IHFXIIa
# T7 sequence (P00748 373-615 limits assumed): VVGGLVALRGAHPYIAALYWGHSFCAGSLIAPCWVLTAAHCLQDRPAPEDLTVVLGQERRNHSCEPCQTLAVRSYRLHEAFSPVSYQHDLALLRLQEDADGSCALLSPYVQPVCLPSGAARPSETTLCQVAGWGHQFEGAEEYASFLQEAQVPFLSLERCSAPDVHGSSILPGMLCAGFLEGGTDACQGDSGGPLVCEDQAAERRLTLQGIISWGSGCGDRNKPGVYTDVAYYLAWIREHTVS
# T7 sequence (P00748 20-372 partner limits assumed): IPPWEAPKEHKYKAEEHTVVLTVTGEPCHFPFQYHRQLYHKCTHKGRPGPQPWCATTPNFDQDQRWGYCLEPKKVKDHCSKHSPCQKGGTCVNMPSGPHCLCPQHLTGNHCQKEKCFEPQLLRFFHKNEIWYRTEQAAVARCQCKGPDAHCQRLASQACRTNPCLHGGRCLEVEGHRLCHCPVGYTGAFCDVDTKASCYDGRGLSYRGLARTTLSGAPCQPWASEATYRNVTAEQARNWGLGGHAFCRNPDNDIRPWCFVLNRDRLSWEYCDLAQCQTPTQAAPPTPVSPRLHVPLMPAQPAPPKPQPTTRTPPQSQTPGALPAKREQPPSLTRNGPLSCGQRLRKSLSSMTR
# Procedure: as §1, §2
# [9] = molecular target: T8, murine uPA (muPA) (Mus musculus, UniProt P06869); test: as above; format: biochemical; conditions: 25 °C, pH 7.4, Z-Gly-Gly-Arg-AMC 50 μM
# T8 construct: mouse uPA (MUPA-LMW,; purchased Molecular Innovations MUPA-LMW
# T8 sequence (P06869 180-433 limits assumed): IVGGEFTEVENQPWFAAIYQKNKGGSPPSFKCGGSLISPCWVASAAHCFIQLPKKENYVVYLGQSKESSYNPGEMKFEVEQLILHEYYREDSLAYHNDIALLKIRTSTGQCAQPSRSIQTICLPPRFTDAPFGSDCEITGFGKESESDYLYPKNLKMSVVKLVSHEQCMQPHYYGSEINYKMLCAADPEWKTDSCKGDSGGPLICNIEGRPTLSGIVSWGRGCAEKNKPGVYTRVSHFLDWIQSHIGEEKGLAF
# T8 sequence (P06869 157-178 partner limits assumed): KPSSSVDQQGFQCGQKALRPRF
# Procedure: as §1, §2
# [10] = pH 7.4, substrate 50 μM, mean ± S.E. of at least three measurements, read-out: Ki
structure (smiles),measurement,setting,value
"CC(C)[C@@H]1NC(=O)CNC(=O)[C@@H]2CSCc3cc(cc(c3)CSC[C@@H](C(=O)NCC(N)=O)NC(=O)[C@H](CO)NC(=O)[C@H](CO)NC(=O)[C@@H]3CCCN3C(=O)[C@H](CC(=O)O)NC1=O)CSC[C@H](NC(=O)[C@H](C)N)C(=O)N[C@@H](CC(N)=O)C(=O)N[C@@H](CO)C(=O)N[C@@H](CCCCN)C(=O)N[C@@H](Cc1ccccc1)C(=O)N[C@@H](CO)C(=O)NCC(=O)N2 [UK140, reference compound] (H-ACNSKFSGCGVDPSSCG-NH2; linker 2-9-16 via TBMB)",Ki,[1]; [10],0.202 µM
same,Ki,[2],0.2 µM
CC(C)[C@@H]1NC(=O)[C@H](Cc2ccccc2)NC(=O)[C@H](CCCNC(=N)N)NC(=O)[C@H](CO)NC(=O)[C@@H](NC(=O)[C@H](C)N)CSCc2cc3cc(c2)CSC[C@@H](C(=O)NCC(N)=O)NC(=O)[C@@H]2CCCN2C(=O)CNC(=O)CNC(=O)[C@H](CCCNC(=N)N)NC(=O)CNC(=O)[C@H](CCCNC(=N)N)NC(=O)[C@H](CSC3)NC(=O)[C@H](CC(=O)O)NC(=O)[C@H](C(C)C)NC1=O [UK970] (H-ACSRFVVDCRGRGGPCG-NH2; linker 2-9-16 via TBMB),Ki,"[1]; pH 7.4, Z-Gly-Gly-Arg-AMC 50 μM, read-out: Ki ± S.E.",0.004 ± 0.001 µM
same,Ki,[1]; [10],0.0043 ± 0.0001 µM
same,Ki,[3],> 1000 µM
same,Ki,[4],> 1000 µM
same,Ki,[5],> 1000 µM
same,Ki,[6],> 1000 µM
same,Ki,[7],> 1000 µM
same,Ki,[8],> 1000 µM
same,Ki,[9],> 1000 µM
CC(C)[C@@H]1NC(=O)[C@H](Cc2ccccc2)NC(=O)[C@H](CCCNC(=N)N)NC(=O)[C@H](CO)NC(=O)[C@@H](NC(=O)[C@H](C)N)CSCc2cc3cc(c2)CSC[C@@H](C(=O)NCC(N)=O)NC(=O)[C@@H]2CCCN2C(=O)CNC(=O)CNC(=O)[C@H](CCCNC(=N)N)NC(=O)CNC(=O)[C@H](CCCNC(=N)N)NC(=O)[C@H](CSC3)NC(=O)[C@H](CC(=O)O)NC(=O)[C@H]([C@@H](C)O)NC1=O [UK973] (H-ACSRFVTDCRGRGGPCG-NH2; linker 2-9-16 via TBMB),Ki,[1]; [10],0.0153 µM
CC(C)[C@@H]1NC(=O)CNC(=O)[C@@H]2CSCc3cc(cc(c3)CSC[C@@H](C(=O)NCC(N)=O)NC(=O)[C@H](CO)NC(=O)CNC(=O)[C@@H]3CCCN3C(=O)[C@H](CC(=O)O)NC1=O)CSC[C@H](NC(=O)[C@H](C)N)C(=O)N[C@@H](CC(N)=O)C(=O)N[C@@H](CO)C(=O)N[C@@H](CCCCN)C(=O)N[C@@H](Cc1ccccc1)C(=O)N[C@@H](CO)C(=O)NCC(=O)N2 [UK974] (H-ACNSKFSGCGVDPGSCG-NH2; linker 2-9-16 via TBMB),Ki,[1]; [10],0.363 µM
